Source: ChEMBL document CHEMBL3351418, “In vitro induction of apoptosis by isosclerone from marine-derived fungus Aspergillus fumigatus” (Bioorg Med Chem Lett, 2014)
The source made the active and inactive calls. The rule behind the calls is not given here.

Tests used:
MCF7 [1] = assay: Cytotoxicity against human MCF7 cells assessed as cell viability at 60 uM after 36 hrs by MTT assay (Rvb =100%); format: functional; conditions: MCF7, 36 h, read-out: Activity
MCF7 [2] = assay: Induction of apoptosis in human MCF7 cells assessed as increase in mitochondrial Apaf-1 release at 20 to 60 uM after 24 hrs by Western blot analysis; format: functional, cell-based
MCF7 [3] = assay: Induction of apoptosis in human MCF7 cells assessed as increase in DNA fragmentation […] by agarose gel electrophoresis; format: functional, cell-based
MCF7 [4] = assay: Cytotoxicity against human MCF7 cells assessed as cell viability at 40 uM after 36 hrs by MTT assay (Rvb =100%); format: functional; conditions: MCF7, 36 h, read-out: Activity
[5] = molecular target: Nuclear factor NF-kappa-B complex (Homo sapiens) (UniProt Q00653+P19838+Q04206); assay: Inhibition of NF-kappaB activation in human MCF7 cells; format: cell-based
Chain of Nuclear factor NF-kappa-B complex (Homo sapiens) (P19838 whole entry, looked up): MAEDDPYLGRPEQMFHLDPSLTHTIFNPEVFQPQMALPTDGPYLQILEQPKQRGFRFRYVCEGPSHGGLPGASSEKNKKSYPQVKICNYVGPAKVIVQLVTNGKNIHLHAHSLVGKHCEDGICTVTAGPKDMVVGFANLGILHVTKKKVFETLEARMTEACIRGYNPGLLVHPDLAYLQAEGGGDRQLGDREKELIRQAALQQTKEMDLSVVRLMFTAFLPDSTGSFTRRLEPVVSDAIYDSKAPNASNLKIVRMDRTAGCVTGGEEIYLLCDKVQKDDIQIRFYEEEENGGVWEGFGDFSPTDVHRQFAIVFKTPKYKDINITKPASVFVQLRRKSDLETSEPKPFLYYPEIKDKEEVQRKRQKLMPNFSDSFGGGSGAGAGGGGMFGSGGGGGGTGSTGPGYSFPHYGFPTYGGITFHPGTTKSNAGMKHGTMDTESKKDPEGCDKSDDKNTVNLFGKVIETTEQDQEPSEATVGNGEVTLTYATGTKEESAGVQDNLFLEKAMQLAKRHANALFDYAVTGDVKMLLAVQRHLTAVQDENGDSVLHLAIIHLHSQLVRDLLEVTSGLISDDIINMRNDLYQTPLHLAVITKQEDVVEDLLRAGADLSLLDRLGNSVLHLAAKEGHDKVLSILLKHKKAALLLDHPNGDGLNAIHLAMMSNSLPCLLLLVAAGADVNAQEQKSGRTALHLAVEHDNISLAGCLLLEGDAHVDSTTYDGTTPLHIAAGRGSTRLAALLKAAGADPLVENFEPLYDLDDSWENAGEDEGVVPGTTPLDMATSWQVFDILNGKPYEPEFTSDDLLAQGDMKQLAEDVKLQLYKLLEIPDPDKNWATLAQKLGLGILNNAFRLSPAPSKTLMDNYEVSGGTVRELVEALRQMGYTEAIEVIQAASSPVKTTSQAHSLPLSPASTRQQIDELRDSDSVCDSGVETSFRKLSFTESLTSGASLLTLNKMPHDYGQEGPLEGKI
Chain of Nuclear factor NF-kappa-B complex (Homo sapiens) (Q00653 whole entry, looked up): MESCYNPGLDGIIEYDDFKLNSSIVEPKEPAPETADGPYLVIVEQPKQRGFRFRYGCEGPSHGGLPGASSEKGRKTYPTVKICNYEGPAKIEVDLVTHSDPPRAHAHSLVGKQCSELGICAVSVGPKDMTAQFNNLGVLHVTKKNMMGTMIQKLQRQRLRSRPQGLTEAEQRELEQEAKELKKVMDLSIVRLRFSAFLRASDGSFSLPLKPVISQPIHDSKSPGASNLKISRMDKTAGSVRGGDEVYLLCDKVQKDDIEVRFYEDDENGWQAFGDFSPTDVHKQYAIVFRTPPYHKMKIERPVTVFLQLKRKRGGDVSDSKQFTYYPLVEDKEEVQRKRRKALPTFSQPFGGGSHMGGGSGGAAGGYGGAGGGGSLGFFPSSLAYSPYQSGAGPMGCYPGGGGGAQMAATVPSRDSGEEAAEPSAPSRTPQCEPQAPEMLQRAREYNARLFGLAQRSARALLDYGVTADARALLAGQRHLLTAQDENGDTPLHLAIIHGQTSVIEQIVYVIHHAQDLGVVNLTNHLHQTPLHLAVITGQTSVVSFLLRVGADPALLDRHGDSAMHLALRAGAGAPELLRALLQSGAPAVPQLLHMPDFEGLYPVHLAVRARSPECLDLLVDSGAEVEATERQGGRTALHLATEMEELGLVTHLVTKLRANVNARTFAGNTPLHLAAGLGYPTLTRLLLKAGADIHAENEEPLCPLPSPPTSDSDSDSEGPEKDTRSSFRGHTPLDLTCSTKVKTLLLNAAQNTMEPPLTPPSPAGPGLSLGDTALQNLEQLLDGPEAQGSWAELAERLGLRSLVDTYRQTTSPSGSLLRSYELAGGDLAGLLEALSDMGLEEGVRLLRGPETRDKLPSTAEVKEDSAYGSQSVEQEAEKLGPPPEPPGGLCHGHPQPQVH
Chain of Nuclear factor NF-kappa-B complex (Homo sapiens) (Q04206 whole entry, looked up): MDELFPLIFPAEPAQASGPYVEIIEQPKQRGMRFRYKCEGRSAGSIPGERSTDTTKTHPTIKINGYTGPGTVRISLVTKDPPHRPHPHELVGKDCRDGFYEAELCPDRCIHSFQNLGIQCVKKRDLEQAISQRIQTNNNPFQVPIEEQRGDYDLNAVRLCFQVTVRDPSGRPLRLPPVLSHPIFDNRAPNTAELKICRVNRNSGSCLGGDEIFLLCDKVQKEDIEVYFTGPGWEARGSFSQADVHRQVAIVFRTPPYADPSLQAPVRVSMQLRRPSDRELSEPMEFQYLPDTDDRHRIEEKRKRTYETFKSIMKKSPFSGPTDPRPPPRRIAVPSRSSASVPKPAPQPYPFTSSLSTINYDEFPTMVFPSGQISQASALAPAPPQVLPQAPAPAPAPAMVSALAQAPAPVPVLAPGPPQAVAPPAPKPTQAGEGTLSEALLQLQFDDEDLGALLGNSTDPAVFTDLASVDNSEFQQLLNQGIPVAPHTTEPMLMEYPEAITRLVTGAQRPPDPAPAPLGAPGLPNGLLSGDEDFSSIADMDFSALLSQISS

MCF7 [6] = assay: Induction of apoptosis in human MCF7 cells assessed as down-regulation of Bcl-2 protein expression at 20 to 60 uM after 24 hrs by Western blot analysis; format: functional, cell-based
MCF7 [7] = assay: Downregulation of PI3K protein expression in human MCF7 cells at 20 to 60 uM by Western blot analysis; format: functional, cell-based
MCF7 [8] = assay: Induction of apoptosis in human MCF7 cells assessed as increase in caspase-3 gene expression by RT-PCR analysis; format: functional, cell-based
[9] = molecular target: T1, Inhibitor of nuclear factor kappa-B kinase subunit alpha (Homo sapiens) (UniProt O15111); assay: Inhibition of human IKK expression in human MCF7 cells after 24 hrs by Western blot analysis; format: cell-based
T1 sequence (whole entry): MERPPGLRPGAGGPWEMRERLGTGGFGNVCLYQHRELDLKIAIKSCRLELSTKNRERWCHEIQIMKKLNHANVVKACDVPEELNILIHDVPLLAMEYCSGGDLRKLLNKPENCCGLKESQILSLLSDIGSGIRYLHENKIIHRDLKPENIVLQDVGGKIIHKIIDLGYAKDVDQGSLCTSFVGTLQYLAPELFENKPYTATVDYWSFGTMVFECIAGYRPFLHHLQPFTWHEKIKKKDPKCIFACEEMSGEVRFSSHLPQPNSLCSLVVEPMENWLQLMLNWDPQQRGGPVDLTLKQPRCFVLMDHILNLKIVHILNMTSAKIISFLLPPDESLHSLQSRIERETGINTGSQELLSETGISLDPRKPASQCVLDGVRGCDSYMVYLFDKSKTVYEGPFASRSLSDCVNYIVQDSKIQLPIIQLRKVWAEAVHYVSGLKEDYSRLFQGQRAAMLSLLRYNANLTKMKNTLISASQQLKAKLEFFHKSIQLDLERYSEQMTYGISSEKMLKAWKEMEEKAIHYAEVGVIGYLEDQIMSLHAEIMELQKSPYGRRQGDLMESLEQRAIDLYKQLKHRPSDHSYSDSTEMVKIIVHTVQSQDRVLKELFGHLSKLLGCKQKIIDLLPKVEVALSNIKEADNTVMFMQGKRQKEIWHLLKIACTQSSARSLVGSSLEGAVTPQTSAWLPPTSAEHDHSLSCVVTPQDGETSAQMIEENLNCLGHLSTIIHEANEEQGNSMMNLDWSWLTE

MCF7 [10] = assay: Inhibition of P65 protein expression in human MCF7 cells after 24 hrs by Western blot analysis; format: functional, cell-based
MCF7 [11] = assay: Effect on phosphorylation of Akt in human MCF7 cells at 20 to 60 uM by Western blot analysis; format: cell-based
[12] = molecular target: T2, Inhibitor of nuclear factor kappa-B kinase subunit beta (Homo sapiens) (UniProt O14920); assay: Inhibition of human IKKbeta activation in human MCF7 cells by Western blot analysis; format: cell-based
T2 sequence (whole entry): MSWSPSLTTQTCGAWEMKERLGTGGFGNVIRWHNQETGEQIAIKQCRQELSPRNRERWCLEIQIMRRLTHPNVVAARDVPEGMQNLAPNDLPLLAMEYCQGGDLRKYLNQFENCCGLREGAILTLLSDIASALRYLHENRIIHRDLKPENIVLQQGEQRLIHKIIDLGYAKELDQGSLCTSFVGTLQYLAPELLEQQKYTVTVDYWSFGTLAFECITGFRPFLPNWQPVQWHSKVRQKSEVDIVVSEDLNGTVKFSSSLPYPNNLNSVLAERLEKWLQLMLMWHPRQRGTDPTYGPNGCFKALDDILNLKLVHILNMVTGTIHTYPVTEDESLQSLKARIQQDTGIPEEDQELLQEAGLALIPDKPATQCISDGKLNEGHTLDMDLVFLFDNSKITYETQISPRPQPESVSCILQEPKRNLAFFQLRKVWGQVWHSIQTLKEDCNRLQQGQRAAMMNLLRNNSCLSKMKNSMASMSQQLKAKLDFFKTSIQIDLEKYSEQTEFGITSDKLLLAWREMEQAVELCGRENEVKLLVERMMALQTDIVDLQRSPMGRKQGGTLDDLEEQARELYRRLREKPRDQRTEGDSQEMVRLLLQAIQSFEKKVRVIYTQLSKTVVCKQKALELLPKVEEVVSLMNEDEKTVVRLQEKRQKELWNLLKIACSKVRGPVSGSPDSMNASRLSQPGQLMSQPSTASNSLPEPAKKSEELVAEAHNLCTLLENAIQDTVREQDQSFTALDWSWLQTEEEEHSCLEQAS

MCF7 [13] = assay: Induction of apoptosis in human MCF7 cells assessed as increase in caspase-8 gene expression by RT-PCR analysis; format: functional, cell-based
MCF7 [14] = assay: Induction of apoptosis in human MCF7 cells assessed as increase in caspase-9 expression by Western blot analysis; format: functional, cell-based
[15] = molecular target: T1, Inhibitor of nuclear factor kappa-B kinase subunit alpha (Homo sapiens); assay: Inhibition of human IKKalpha activation in human MCF7 cells by Western blot analysis; format: cell-based
MCF7 [16] = assay: Cytotoxicity against human MCF7 cells assessed as cell viability at 20 uM after 36 hrs by MTT assay (Rvb =100%); format: functional; conditions: MCF7, 36 h, read-out: Activity
MCF7 [17] = assay: Induction of apoptosis in human MCF7 cells assessed as increase in caspase-8 expression by Western blot analysis; format: functional, cell-based
MCF7 [18] = assay: Cytotoxicity against human MCF7 cells assessed as cell viability after 24 to 36 hrs by MTT assay; format: functional, cell-based
MCF7 [19] = assay: Induction of apoptosis in human MCF7 cells assessed as increase in caspase-9 gene expression by RT-PCR analysis; format: functional, cell-based
MCF7 [20] = assay: Induction of apoptosis in human MCF7 cells assessed as increase in mitochondrial cytochrome C release at 20 to 60 uM after 24 hrs by Western blot analysis; format: functional, cell-based
MCF7 [21] = assay: Cytotoxicity against human MCF7 cells assessed as cell viability at 20 uM by MTT assay; format: functional, cell-based; conditions: TDE = time-dependent effect
MCF7 [22] = assay: Induction of apoptosis in human MCF7 cells assessed as up-regulation of Bax gene expression at 20 to 60 uM after 24 hrs by RT-PCR analysis; format: functional, cell-based
MCF7 [23] = assay: Inhibition of P50 protein expression in human MCF7 cells after 24 hrs by Western blot analysis; format: functional, cell-based
Caspase-3 = molecular target: T3, Caspase-3 (Homo sapiens, UniProt P42574); assay: Binding affinity to procaspase-3 (unknown origin)
T3 sequence (P42574 whole entry): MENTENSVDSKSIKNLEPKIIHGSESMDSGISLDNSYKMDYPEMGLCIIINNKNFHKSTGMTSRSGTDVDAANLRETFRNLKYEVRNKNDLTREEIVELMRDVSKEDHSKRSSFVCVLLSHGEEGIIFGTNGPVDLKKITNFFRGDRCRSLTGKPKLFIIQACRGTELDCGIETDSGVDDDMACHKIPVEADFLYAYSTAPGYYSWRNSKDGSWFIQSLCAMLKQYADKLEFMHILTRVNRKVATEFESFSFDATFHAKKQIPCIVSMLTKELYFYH

MCF7 [24] = assay: Cytotoxicity against human MCF7 cells assessed as cell viability at 40 uM after 24 hrs by MTT assay (Rvb =100%); format: functional; conditions: MCF7, 24 h, read-out: Activity
MCF7 [25] = assay: Induction of apoptosis in human MCF7 cells assessed as increase in caspase-3 expression by Western blot analysis; format: functional, cell-based
MCF7 [26] = assay: Induction of apoptosis in human MCF7 cells assessed as up-regulation of Bax protein expression at 20 to 60 uM after 24 hrs by Western blot analysis; format: functional, cell-based
[27] = molecular target: Apoptosis regulator Bcl-2 (Homo sapiens, UniProt P10415); assay: Binding affinity to Bcl-2 (unknown origin)
Chain of Apoptosis regulator Bcl-2 (P10415 whole entry): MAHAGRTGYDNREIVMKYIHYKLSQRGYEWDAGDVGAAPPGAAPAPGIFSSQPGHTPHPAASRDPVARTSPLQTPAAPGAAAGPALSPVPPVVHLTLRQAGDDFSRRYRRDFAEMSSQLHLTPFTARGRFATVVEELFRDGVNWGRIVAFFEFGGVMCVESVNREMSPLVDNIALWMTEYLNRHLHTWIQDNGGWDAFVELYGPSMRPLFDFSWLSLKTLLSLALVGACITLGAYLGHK

MCF7 [28] = assay: Cytotoxicity against human MCF7 cells assessed as cell viability at 60 uM after 24 hrs by MTT assay (Rvb =100%); format: functional; conditions: MCF7, 24 h, read-out: Activity
MCF7 [29] = assay: Cytotoxicity against human MCF7 cells assessed as cell viability at 20 uM after 24 hrs by MTT assay (Rvb =100%); format: functional; conditions: MCF7, 24 h, read-out: Activity
MCF7 [30] = assay: Induction of apoptosis in human MCF7 cells assessed as increase in DNA damage after 24 hrs by Hoechst staining based inverted fluorescent microscopy; format: functional, cell-based
MCF7 [31] = assay: Downregulation of Akt protein expression in human MCF7 cells at 20 to 60 uM by Western blot analysis; format: functional, cell-based
MCF7 [32] = assay: Downregulation of Akt gene expression in human MCF7 cells at 20 to 60 uM by RT-PCR analysis; format: functional, cell-based
MCF7 [33] = assay: Downregulation of PI3K gene expression in human MCF7 cells at 20 to 60 uM by RT-PCR analysis; format: functional, cell-based

inhibition [5]: Dose-dependent effect | inhibition [9]: Active | inhibition [12]: Active | inhibition [15]: Active | Ki (Caspase-3): 732 µM | Ki [27]: 475 µM
SMILES: O=C1CC[C@H](O)c2cccc(O)c21
viability at 60 µM (MCF7 [1]): 50% | Activity (MCF7 [2]): Active | Activity (MCF7 [3]): Dose-dependent effect | viability at 40 µM (MCF7 [4]): 66% | inhibition (MCF7 [6]): Active | inhibition (MCF7 [7]): Active | Activity (MCF7 [8]): Dose-dependent effect | inhibition (MCF7 [10]): Dose-dependent effect | inhibition (MCF7 [11]): inactive | Activity (MCF7 [13]): Dose-dependent effect | Activity (MCF7 [14]): Dose-dependent effect | viability at 20 µM (MCF7 [16]): 87% | Activity (MCF7 [17]): Dose-dependent effect | inhibition (MCF7 [18]): Dose-dependent effect | Activity (MCF7 [19]): Dose-dependent effect | Activity (MCF7 [20]): Active | inhibition (MCF7 [21]): tde | Activity (MCF7 [22]): Active | inhibition (MCF7 [23]): Dose-dependent effect | viability at 40 µM (MCF7 [24]): 89% | Activity (MCF7 [25]): Dose-dependent effect | Activity (MCF7 [26]): Active | viability at 60 µM (MCF7 [28]): 70% | viability at 20 µM (MCF7 [29]): 97% | Activity (MCF7 [30]): Dose-dependent effect | inhibition (MCF7 [31]): Active | inhibition (MCF7 [32]): Active | inhibition (MCF7 [33]): Active
